Measured values taken from patent US20240238423A9, “TETRAHYDROISOQUINOLINE HETEROBIFUNCTIONAL BCL-XL DEGRADERS” (Treeline Biosciences, Inc., priority 2022, published 2024).
Like-named read-outs stand apart in the source and are kept apart here.

Target: T1, Human BCL-XL protein (N-terminal HiBiT tagged BCL-XL in HT1080 cells) (Homo sapiens, UniProt Q07817)
T1 construct: expressed in transfected cells; host or cells: HT-1080 (ATCC CCL-121), stably transduced with lentivirus pLV-UBC-N-HiBiT-BCL-XL-PGK-puro and selected with puromycin
Assay: HiBiT based degradation assay
Assay type: cell-based
Conditions: HT1080 cells expressing HiBiT-BCL-XL; for Ymin (24 h) / Ymin (6 h): BCL-XL degradation normalized with DMSO control; for DC50: BCL-XL degradation
Method in brief: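 This HiBiT degradation assay measured loss of BCL-XL in HT1080 cells that stably express an N-terminal HiBiT-BCL-XL fusion delivered by lentivirus. Cells were added to compound-spotted 384-well plates, and luminescence was read on a PHERAstar FSX reader. Signal was expressed relative to DMSO controls, curves were fitted by four-parameter logistic regression, and for hook-shaped curves the Ymin point served as the bottom plateau when calculating EC50.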

T1 sequence (Q07817 whole entry): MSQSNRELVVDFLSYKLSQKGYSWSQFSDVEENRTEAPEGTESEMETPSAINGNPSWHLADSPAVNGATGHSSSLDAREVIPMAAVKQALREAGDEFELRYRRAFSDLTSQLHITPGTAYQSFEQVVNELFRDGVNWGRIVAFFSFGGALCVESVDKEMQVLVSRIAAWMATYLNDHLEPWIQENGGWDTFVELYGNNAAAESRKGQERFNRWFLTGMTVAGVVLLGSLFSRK

Row | Structure (SMILES) | Ymin (24 h) | DC50 (24 h, read-out: EC50 (24 h)) | Ymin (6 h) | DC50 (6 h, read-out: EC50 (6 h))
1 | Cc1c(O[C@H]2CC[C@H](CCCCN3CCN(c4ccc5c(C6CCC(=O)NC6=O)nn(C)c5c4F)CC3)CC2)cccc1-c1ccc(N2CCc3cccc(C(=O)Nc4nc5ccccc5s4)c3C2)nc1C(=O)O (some centres unmarked) [Compound 293a, 6-(8-(benzo[d]thiazol-2-ylcarbamoyl)-3,4-dihydroisoquinolin-2(1H)-yl)-3-(3-(((1s,4r)-4-(4-(4-(3-(2,6-dioxopiperidin-3-yl)-7-fluoro-1-methyl-1H-indazol-6-yl)piperazin-1-yl)butyl)cyclohexyl)oxy)-2-methylphenyl)picolinic acid] | A (Ymin < 50%) | < 100 nM | – | –
2 | Cc1cc(OCC[C@@H](C)C2CCN(CC(=O)Nc3ccc4c(C5CCC(=O)NC5=O)nn(C)c4c3)CC2)ccc1-c1ccc(N2CCc3cccc(C(=O)Nc4nc5ccccc5s4)c3C2)nc1C(=O)O (single isomer, unassigned) [Compound 266a] | A (Ymin < 50%) | < 100 nM | – | –
3 | Cc1c(OCCCN2CCN(CC(=O)N3CCN(c4ccc5c(C6CCC(=O)NC6=O)nn(C)c5c4)CC3)CC2)cccc1-c1ccc(N2CCc3cccc(C(=O)Nc4nc5ccccc5s4)c3C2)nc1C(=O)O (centres unmarked) [Compound 140, 6-(8-(Benzo[d]thiazol-2-ylcarbamoyl)-3,4-dihydroisoquinolin-2(1H)-yl)-3-(3-(3-(4-(2-(4-(3-(2,6-dioxopiperidin-3-yl)-1-methyl-1H-indazol-6-yl)piperazin-1-yl)-2-oxoethyl)piperazin-1-yl)propoxy)-2-methylphenyl)picolinic acid] | A (Ymin < 50%) | < 100 nM | A (Ymin < 50%) | < 100 nM
4 | Cc1cc(CCCOC2CCN(CC(=O)Nc3ccc4c(C5CCC(=O)NC5=O)nn(C)c4c3)CC2)ccc1-c1ccc(N2CCc3cccc(C(=O)Nc4nc5ccccc5s4)c3C2)nc1C(=O)O (centres unmarked) [Compound 291, 6-[8-(1,3-benzothiazol-2-ylcarbamoyl)-3,4-dihydro-1H-isoquinolin-2-yl]-3-[4-[3-[[1-[2-[[3-(2,6-dioxo-3-piperidyl)-1-methyl-indazol-6-yl]amino]-2-oxo-ethyl]-4-piperidyl]oxy]propyl]-2-methyl-phenyl]pyridine-2-carboxylic acid] | A (Ymin < 50%) | < 100 nM | – | –
5 | Cc1c(O[C@H]2CC[C@H](CCCN3CCN(c4ccc5c(C6CCC(=O)NC6=O)nn(C)c5c4)C(C)(C)C3)CC2)cccc1-c1ccc(N2CCc3cccc(C(=O)Nc4nc5ccccc5s4)c3C2)nc1C(=O)O (some centres unmarked) [Compound 318a, 6-(8-(benzo[d]thiazol-2-ylcarbamoyl)-3,4-dihydroisoquinolin-2(1H)-yl)-3-(3-(((1s,4r)-4-(3-(4-(3-(2,6-dioxopiperidin-3-yl)-1-methyl-1H-indazol-6-yl)-3,3-dimethylpiperazin-1-yl)propyl)cyclohexyl)oxy)-2-methylphenyl)picolinic acid] | A (Ymin < 50%) | < 100 nM | – | –
6 | Cc1c(O[C@H]2CC[C@@H](CCCN3CCN(c4ccc5c(C6CCC(=O)NC6=O)nn(C)c5c4)CC3)CC2)cccc1-c1ccc(N2CCc3cccc(C(=O)Nc4nc5ccccc5s4)c3C2)nc1C(=O)O (some centres unmarked) [Compound 148b, 6-(8-(benzo[d]thiazol-2-ylcarbamoyl)-3,4-dihydroisoquinolin-2(1H)-yl)-3-(3-(((1r,4s)-4-(3-(4-(3-(2,6-dioxopiperidin-3-yl)-1-methyl-1H-indazol-6-yl)piperazin-1-yl)propyl)cyclohexyl)oxy)-2-methylphenyl)picolinic acid] | A (Ymin < 50%) | < 100 nM | – | –
7 | Cc1c(O[C@H]2CC[C@H](CCCCN3CCC[C@H](c4ccc5c(C6CCC(=O)NC6=O)nn(C)c5c4)C3)CC2)cccc1-c1ccc(N2CCc3cccc(C(=O)Nc4nc5ccccc5s4)c3C2)nc1C(=O)O (single isomer, unassigned) [Compound 352a] | A (Ymin < 50%) | < 100 nM | – | –
8 | Cc1c(OCCCC2CCN([C@H](C)C(=O)Nc3ccc4c(C5CCC(=O)NC5=O)nn(C)c4c3)CC2)cccc1-c1ccc(N2CCc3cccc(C(=O)Nc4nc5ccccc5s4)c3C2)nc1C(=O)O (stereo partly drawn) [Compound 164b, 6-(8-(benzo[d]thiazol-2-ylcarbamoyl)-3,4-dihydroisoquinolin-2(1H)-yl)-3-(3-(3-(1-((2R)-1-((3-(2,6-dioxopiperidin-3-yl)-1-methyl-1H-indazol-6-yl)amino)-1-oxopropan-2-yl)piperidin-4-yl)propoxy)-2-methylphenyl)picolinic acid] | A (Ymin < 50%) | < 100 nM | – | –
9 | Cc1cc(OCCC[C@H]2CCN(CC(=O)Nc3ccc4c(C5CCC(=O)NC5=O)nn(C)c4c3)[C@@H](C)C2)ccc1-c1ccc(N2CCc3cccc(C(=O)Nc4nc5ccccc5s4)c3C2)nc1C(=O)O (stereo partly drawn) [Compound 344a, 6-[8-(1,3-benzothiazol-2-ylcarbamoyl)-3,4-dihydro-1H-isoquinolin-2-yl]-3-[4-[3-[(2S,4S)-1-[2-[[3-(2,6-dioxo-3-piperidyl)-1-methyl-indazol-6-yl]amino]-2-oxo-ethyl]-2-methyl-4-piperidyl]propoxy]-2-methyl-phenyl]pyridine-2-carboxylic acid] | A (Ymin < 50%) | < 100 nM | – | –
10 | Cc1c(O[C@H]2CC[C@H](CC(F)(F)C(=O)N3CCN(c4cccc5c(C6CCC(=O)NC6=O)nn(C)c45)CC3)CC2)cccc1-c1ccc(N2CCc3cccc(C(=O)Nc4nc5ccccc5s4)c3C2)nc1C(=O)O (some centres unmarked) [Compound 171a, 6-(8-(benzo[d]thiazol-2-ylcarbamoyl)-3,4-dihydroisoquinolin-2(1H)-yl)-3-(3-(((1r,4r)-4-(3-(4-(3-(2,6-dioxopiperidin-3-yl)-1-methyl-1H-indazol-7-yl)piperazin-1-yl)-2,2-difluoro-3-oxopropyl)cyclohexyl)oxy)-2-methylphenyl)picolinic acid] | B (50% ≤ Ymin < 70%) | 100 to 1000 nM | – | –
11 | Cc1c(Oc2ccccc2CCC(=O)Nc2ccc(C3CCC(=O)NC3=O)cc2)cccc1-c1ccc(N2CCc3cccc(C(=O)Nc4nc5ccccc5s4)c3C2)nc1C(=O)O (centres unmarked) [Compound 134, 6-(8-(benzo[d]thiazol-2-ylcarbamoyl)-3,4-dihydroisoquinolin-2(1H)-yl)-3-(3-(2-(3-((4-(2,6-dioxopiperidin-3-yl)phenyl)amino)-3-oxopropyl)phenoxy)-2-methylphenyl)picolinic acid] | B (50% ≤ Ymin < 70%) | < 100 nM | B (50% ≤ Ymin < 70%) | 100 to 1000 nM
12 | Cc1c(O[C@@H](C)CCC2CCN(CC(=O)Nc3ccc4c(C5CCC(=O)NC5=O)nn(C)c4c3)CC2)cccc1-c1ccc(N2CCc3cccc(C(=O)Nc4nc5ccccc5s4)c3C2)nc1C(=O)O (some centres unmarked) [Compound 162a, 6-[8-(1,3-benzothiazol-2-ylcarbamoyl)-3,4-dihydro-H-isoquinolin-2-yl]-3-[3-[(1 S)-3-[1-[2-[[3-(2,6-dioxo-3-piperidyl)-1-methyl-indazol-6-yl]amino]-2-oxo-ethyl]-4-piperidyl]-1-methyl-propoxy]-2-methyl-phenyl]pyridine-2-carboxylic acid] | A (Ymin < 50%) | < 100 nM | B (50% ≤ Ymin < 70%) | < 100 nM
13 | Cc1c(OCC(F)(F)CC2CCN(CC(=O)Nc3ccc4c(C5CCC(=O)NC5=O)nn(C)c4c3)CC2)cccc1-c1ccc(N2CCc3cccc(C(=O)Nc4nc5ccccc5s4)c3C2)nc1C(=O)O (centres unmarked) [Compound 181, 6-[8-(1,3-benzothiazol-2-ylcarbamoyl)-3,4-dihydro-1H-isoquinolin-2-yl]-3-[3-[3-[1-[2-[[3-(2,6-dioxo-3-piperidyl)-1-methyl-indazol-6-yl]amino]-2-oxo-ethyl]-4-piperidyl]-2,2-difluoro-propoxy]-2-methyl-phenyl]pyridine-2-carboxylic acid] | A (Ymin < 50%) | < 100 nM | – | –
14 | Cc1c(OCCC[C@@H]2CCN(CC(=O)Nc3ccc4c(C5CCC(=O)NC5=O)nn(C)c4c3)CC2(F)F)cccc1-c1ccc(N2CCc3cccc(C(=O)Nc4nc5ccccc5s4)c3C2)nc1C(=O)O (stereo partly drawn) [Compound 193a, 6-(8-(benzo[d]thiazol-2-ylcarbamoyl)-3,4-dihydroisoquinolin-2(1H)-yl)-3-(3-(3-((4R)-1-(2-((3-(2,6-dioxopiperidin-3-yl)-1-methyl-1H-indazol-6-yl)amino)-2-oxoethyl)-3,3-difluoropiperidin-4-yl)propoxy)-2-methylphenyl)picolinic acid] | B (50% ≤ Ymin < 70%) | 100 to 1000 nM | – | –
15 | Cc1c(O[C@H]2CC[C@H](CCCCN3CCN(c4ccc5c(C6CCC(=O)NC6=O)nn(C)c5c4)C[C@@H]3C)CC2)cccc1-c1ccc(N2CCc3cccc(C(=O)Nc4nc5ccccc5s4)c3C2)nc1C(=O)O (stereo partly drawn) [Compound 297b, 6-(8-(benzo[d]thiazol-2-ylcarbamoyl)-3,4-dihydroisoquinolin-2(1H)-yl)-3-(3-(((1r,4r)-4-(4-((2S)-4-(3-(2,6-dioxopiperidin-3-yl)-1-methyl-1H-indazol-6-yl)-2-methylpiperazin-1-yl)butyl)cyclohexyl)oxy)-2-methylphenyl)picolinic acid] | A (Ymin < 50%) | < 100 nM | – | –
16 | Cc1c(O[C@H]2CC[C@H](CCCCN3CCC(c4cccc5c(C6CCC(=O)NC6=O)nn(C)c45)CC3)CC2)cccc1-c1ccc(N2CCc3cccc(C(=O)Nc4nc5ccccc5s4)c3C2)nc1C(=O)O (some centres unmarked) [Compound 298a, 6-(8-(benzo[d]thiazol-2-ylcarbamoyl)-3,4-dihydroisoquinolin-2(1H)-yl)-3-(3-(((1s,4r)-4-(4-(4-(3-(2,6-dioxopiperidin-3-yl)-1-methyl-1H-indazol-7-yl)piperidin-1-yl)butyl)cyclohexyl)oxy)-2-methylphenyl)picolinic acid] | A (Ymin < 50%) | < 100 nM | – | –
